Results: patent US20130296436A1, “AMIDINE COMPOUNDS AND USE THEREOF FOR PLANT DISEASE CONTROL” (SUMITOMO CHEMICAL COMPANY, LIMITED, priority 2010, published 2013)

Tested on: Pyrenophora teres
Assay: Test Example 8: barley Pyrenophora teres, foliar application before inoculation, 50 ppm
Format: in vivo
Conditions: barley (Nishinohoshi), 50 ppm foliar application, inoculated two days after, 3 days + 7 days

## CCN(C)/C=N/c1cc(C)c(OCC(F)(F)C(F)(F)C(F)(F)C(F)(F)C(F)(F)F)cc1C [present compound 7]
  lesion area on the treated plant relative to the area of lesions on an untreated plant: ≤ 30%
